Patent US12146004B2, “Polymyxin compounds and uses thereof” (priority 2014, dated 2024)
Values after ≈ are worked out from the molar mass of the structure shown. Like-named read-outs stand apart in the source and are kept apart here.

Assays:
Assay type in all cases: cell-based
Escherichia coli = test system: Escherichia coli
Method: (§1) To evaluate the potency and spectrum of the compounds, susceptibility testing was performed against up to nine strains of each of the Gram negative pathogens, Escherichia coli, Pseudomonas aeruginosa, Klebsiella pneumoniae and Acinetobacter baumannii.
(§2) The values in Table 2 are MIC (μg/mL) against strains of E. coli, K. pneumoniae, P. aeruginosa and A. baumanii, including strains which show elevated MICs to Polymyxin.
(§3) The values in Table 2A are MIC (μg/mL).
(§4) The in vitro activity of compounds 26 and C7 (FADDI-02) against resistant bacterial strains was compared. The resistant strains included including Escherichia coli, Pseudomonas aeruginosa, Klebsiella pneumoniae and Acinetobacter baumannii strains. The data is provided in Table 2C, where the strains are identified. The values in Table 2 are MIC (μg/mL).

Acinetobacter baumannii = test system: Acinetobacter baumannii
Method: as §1, §2, §3, §4

Pseudomonas aeruginosa = test system: Pseudomonas aeruginosa
Method: as §1, §2, §3, §4

Klebsiella pneumoniae = test system: Klebsiella pneumoniae
Method: as §1, §2, §3, §4

2-Aminomethyl-4- methyl pentanoyl polymyxin L-Thr-L-Dap- polymyxin [D-{4-(4- trifluoromethyl) phenyl} Phe]-6]heptapeptide. Isomer 1 [Example 19]
MIC E. coli 058 (Escherichia coli; strain 058): 16 mg/L
MIC E. coli ATCC 25922 (Escherichia coli; strain ATCC 25922): 1 mg/L
MIC A. baumanii ATCC BAA-747 (Acinetobacter baumannii; strain ATCC BAA-747): 1 mg/L
MIC P. aeruginosa ATCC 27853 (Pseudomonas aeruginosa; strain ATCC 27853): 2 mg/L
MIC K. pneumoniae 065 (Klebsiella pneumoniae; strain 065): 16 mg/L
MIC K. pneumoniae ATCC 4352 (Klebsiella pneumoniae; strain ATCC 4352): 1 mg/L

CC(C)C[C@@H]1NC(=O)[C@@H](CC2CCCCC2)NC(=O)[C@H](CCN)NC(=O)[C@@H](NC(=O)[C@H](CCN)NC(=O)[C@@H](NC(=O)CC(CN)CC2CCCCC2)[C@@H](C)O)CCNC(=O)[C@H]([C@@H](C)O)NC(=O)[C@H](CCN)NC(=O)[C@H](CCN)NC1=O (single isomer, unassigned) [Example 72, 4-amino-3-(cyclohexylmethyl) butanoyl polymyxin [D-cyclohexylalanine]-6 nonapeptide]
MIC E. coli 058 (Escherichia coli; strain 058): 2 mg/L (≈ 1.74 µM)
MIC E. coli 061 (Escherichia coli; strain 061): 8 mg/L (≈ 6.95 µM)
MIC E. coli ATCC 25922 (Escherichia coli; strain ATCC 25922): 0.25 mg/L (≈ 0.217 µM)
MIC E. coli NCTC 9001 (Escherichia coli; strain NCTC 9001): 0.25 mg/L (≈ 0.217 µM)
MIC A. baumanii 053 (Acinetobacter baumannii; strain 053): 64 mg/L (≈ 55.6 µM)
MIC A. baumanii 056 (Acinetobacter baumannii; strain 056): 16 mg/L (≈ 13.9 µM)
MIC A. baumanii ATCC BAA-747 (Acinetobacter baumannii; strain ATCC BAA-747): 0.25 mg/L (≈ 0.217 µM)
MIC A. baumanii NCTC 13424 (Acinetobacter baumannii; strain NCTC 13424): 0.125 mg/L (≈ 0.109 µM)
MIC P. aeruginosa 068 (Pseudomonas aeruginosa; strain 068): 4 mg/L (≈ 3.48 µM)
MIC P. aeruginosa 070 (Pseudomonas aeruginosa; strain 070): 8 mg/L (≈ 6.95 µM)
MIC P. aeruginosa ATCC 27853 (Pseudomonas aeruginosa; strain ATCC 27853): 0.25 mg/L (≈ 0.217 µM)
MIC P. aeruginosa CCUG 59347 (Pseudomonas aeruginosa; strain CCUG 59347): 0.5 mg/L (≈ 0.435 µM)
MIC K. pneumoniae 063 (Klebsiella pneumoniae; strain 063): 8 mg/L (≈ 6.95 µM)
MIC K. pneumoniae 065 (Klebsiella pneumoniae; strain 065): 0.5 mg/L (≈ 0.435 µM)
MIC K. pneumoniae ATCC 13882 (Klebsiella pneumoniae; strain ATCC 13882): 0.25 mg/L (≈ 0.217 µM)

CCCCCCCCC1CNCC1C(=O)N[C@H](C(=O)N[C@@H](CCN)C(=O)N[C@H]1CCNC(=O)[C@H]([C@@H](C)O)NC(=O)[C@H](CCN)NC(=O)[C@H](CCN)NC(=O)[C@H](CC(C)C)NC(=O)[C@@H](Cc2ccc(-c3ccccc3)cc2)NC(=O)[C@H](CCN)NC1=O)C(C)O (single isomer, unassigned; isomer 1) [Example 7, trans-4-octylpyrrolidine-3-carbonyl polymyxin [D-(4-phenyl)Phe]-6] nonapeptide. Isomer 1]
MIC E. coli 058 (Escherichia coli): 2 mg/L (≈ 1.6 µM)
MIC E. coli 059 (Escherichia coli): 1 mg/L (≈ 0.801 µM)
MIC E. coli 060 (Escherichia coli): 4 mg/L (≈ 3.2 µM)
MIC E. coli 061 (Escherichia coli): 8 mg/L (≈ 6.41 µM)
MIC E. coli ATCC 25922 (Escherichia coli): 1 mg/L (≈ 0.801 µM)
MIC A. baumanii 053 (Acinetobacter baumannii): 8 mg/L (≈ 6.41 µM)
MIC A. baumanii 056 (Acinetobacter baumannii): 4 mg/L (≈ 3.2 µM)
MIC A. baumanii ATCC BAA-747 (Acinetobacter baumannii): 1 mg/L (≈ 0.801 µM)
MIC P. aeruginosa 068 (Pseudomonas aeruginosa): 2 mg/L (≈ 1.6 µM)
MIC P. aeruginosa 070 (Pseudomonas aeruginosa): 2 mg/L (≈ 1.6 µM)
MIC K. pneumoniae 062 (Klebsiella pneumoniae): 16 mg/L (≈ 12.8 µM)
MIC K. pneumoniae 063 (Klebsiella pneumoniae): 32 mg/L (≈ 25.6 µM)
MIC K. pneumoniae 064 (Klebsiella pneumoniae): 8 mg/L (≈ 6.41 µM)
MIC K. pneumoniae 065 (Klebsiella pneumoniae): 1 mg/L (≈ 0.801 µM)
MIC K. pneumoniae 066 (Klebsiella pneumoniae): 4 mg/L (≈ 3.2 µM)
MIC K. pneumoniae 067 (Klebsiella pneumoniae): 32 mg/L (≈ 25.6 µM)
MIC K. pneumoniae ATCC 4352 (Klebsiella pneumoniae): 1 mg/L (≈ 0.801 µM)

CCCCCCCCC1CNCC1C(=O)N[C@H](C(=O)N[C@@H](CCN)C(=O)N[C@H]1CCNC(=O)[C@H]([C@@H](C)O)NC(=O)[C@H](CCN)NC(=O)[C@H](CCN)NC(=O)[C@H](CC(C)C)NC(=O)[C@@H](Cc2ccccc2-c2ccccc2)NC(=O)[C@H](CCN)NC1=O)C(C)O (single isomer, unassigned; isomer 1) [Example 9, trans-4-octylpyrrolidine-3-carbonyl polymyxin [D-(2-phenyl)Phe]-6] nonapeptide. Isomer 1]
MIC E. coli 058 (Escherichia coli): 2 mg/L (≈ 1.6 µM)
MIC E. coli 059 (Escherichia coli): 2 mg/L (≈ 1.6 µM)
MIC E. coli 060 (Escherichia coli): 4 mg/L (≈ 3.2 µM)
MIC E. coli 061 (Escherichia coli): 8 mg/L (≈ 6.41 µM)
MIC E. coli ATCC 25922 (Escherichia coli): 1 mg/L (≈ 0.801 µM)
MIC A. baumanii 053 (Acinetobacter baumannii): 64 mg/L (≈ 51.3 µM)
MIC A. baumanii 056 (Acinetobacter baumannii): 32 mg/L (≈ 25.6 µM)
MIC A. baumanii ATCC BAA-747 (Acinetobacter baumannii): 1 mg/L (≈ 0.801 µM)
MIC P. aeruginosa 068 (Pseudomonas aeruginosa): 2 mg/L (≈ 1.6 µM)
MIC P. aeruginosa 070 (Pseudomonas aeruginosa): 2 mg/L (≈ 1.6 µM)
MIC P. aeruginosa ATCC 27853 (Pseudomonas aeruginosa): 1 mg/L (≈ 0.801 µM)
MIC K. pneumoniae 062 (Klebsiella pneumoniae): 64 mg/L (≈ 51.3 µM)
MIC K. pneumoniae 063 (Klebsiella pneumoniae): >64 mg/L
MIC K. pneumoniae 064 (Klebsiella pneumoniae): 64 mg/L (≈ 51.3 µM)
MIC K. pneumoniae 065 (Klebsiella pneumoniae): 8 mg/L (≈ 6.41 µM)
MIC K. pneumoniae 066 (Klebsiella pneumoniae): 32 mg/L (≈ 25.6 µM)
MIC K. pneumoniae 067 (Klebsiella pneumoniae): >64 mg/L
MIC K. pneumoniae ATCC 4352 (Klebsiella pneumoniae): 0.5 mg/L (≈ 0.4 µM)

CC(C)CC1CNCC(C(=O)N[C@H](C(=O)N[C@@H](CN)C(=O)N[C@H]2CCNC(=O)[C@H]([C@@H](C)O)NC(=O)[C@H](CCN)NC(=O)[C@H](CCN)NC(=O)[C@H](CC(C)C)NC(=O)[C@@H](Cc3ccc(Br)cc3)NC(=O)[C@H](CCN)NC2=O)C(C)O)C1 (single isomer, unassigned; isomer 1) [Example 11, (trans-5-(isobutyl-piperidine)-3-carbonyl L-Thr-L-Dap-polymyxin [D-(4-bromo Phe)]-6] hept apeptide Isomer 1]
MIC E. coli 058 (Escherichia coli): 16 mg/L (≈ 13.4 µM)
MIC E. coli 059 (Escherichia coli): 32 mg/L (≈ 26.8 µM)
MIC E. coli 060 (Escherichia coli): 16 mg/L (≈ 13.4 µM)
MIC E. coli 061 (Escherichia coli): 64 mg/L (≈ 53.5 µM)
MIC E. coli ATCC 25922 (Escherichia coli): 1 mg/L (≈ 0.837 µM)
MIC A. baumanii 053 (Acinetobacter baumannii): >64 mg/L
MIC A. baumanii 056 (Acinetobacter baumannii): 32 mg/L (≈ 26.8 µM)
MIC A. baumanii ATCC BAA-747 (Acinetobacter baumannii): 2 mg/L (≈ 1.67 µM)
MIC P. aeruginosa 068 (Pseudomonas aeruginosa): 8 mg/L (≈ 6.69 µM)
MIC P. aeruginosa 070 (Pseudomonas aeruginosa): 16 mg/L (≈ 13.4 µM)
MIC P. aeruginosa ATCC 27853 (Pseudomonas aeruginosa): 1 mg/L (≈ 0.837 µM)
MIC K. pneumoniae 062 (Klebsiella pneumoniae): >64 mg/L
MIC K. pneumoniae 063 (Klebsiella pneumoniae): >64 mg/L
MIC K. pneumoniae 064 (Klebsiella pneumoniae): >64 mg/L
MIC K. pneumoniae 065 (Klebsiella pneumoniae): 64 mg/L (≈ 53.5 µM)
MIC K. pneumoniae 066 (Klebsiella pneumoniae): >64 mg/L
MIC K. pneumoniae 067 (Klebsiella pneumoniae): >64 mg/L
MIC K. pneumoniae ATCC 4352 (Klebsiella pneumoniae): 1 mg/L (≈ 0.837 µM)

CC(C)CC(CN)C(=O)N[C@H](C(=O)N[C@@H](CN)C(=O)N[C@H]1CCNC(=O)[C@H]([C@@H](C)O)NC(=O)[C@H](CCN)NC(=O)[C@H](CCN)NC(=O)[C@H](CC(C)C)NC(=O)[C@@H](Cc2ccc(Br)cc2)NC(=O)[C@H](CCN)NC1=O)C(C)O (single isomer, unassigned; isomer 1) [Example 13, 2-aminomethyl-4-methyl pentanoyl polymyxin L-Thr-L-Dap-polymyxin [D-(4-bromo Phe)]-6]heptapeptide. Isomer 1]
MIC E. coli 058 (Escherichia coli): 32 mg/L (≈ 27.7 µM)
MIC E. coli 059 (Escherichia coli): 32 mg/L (≈ 27.7 µM)
MIC E. coli 060 (Escherichia coli): 32 mg/L (≈ 27.7 µM)
MIC E. coli 061 (Escherichia coli): >64 mg/L
MIC E. coli ATCC 25922 (Escherichia coli): 1 mg/L (≈ 0.866 µM)
MIC A. baumanii 053 (Acinetobacter baumannii): >64 mg/L
MIC A. baumanii 056 (Acinetobacter baumannii): >64 mg/L
MIC A. baumanii ATCC BAA-747 (Acinetobacter baumannii): >8 mg/L
MIC P. aeruginosa 068 (Pseudomonas aeruginosa): 32 mg/L (≈ 27.7 µM)
MIC P. aeruginosa 070 (Pseudomonas aeruginosa): 64 mg/L (≈ 55.4 µM)
MIC P. aeruginosa ATCC 27853 (Pseudomonas aeruginosa): 0.5 mg/L (≈ 0.433 µM)
MIC K. pneumoniae 062 (Klebsiella pneumoniae): >64 mg/L
MIC K. pneumoniae 063 (Klebsiella pneumoniae): >64 mg/L
MIC K. pneumoniae 064 (Klebsiella pneumoniae): >64 mg/L
MIC K. pneumoniae 065 (Klebsiella pneumoniae): >64 mg/L
MIC K. pneumoniae 066 (Klebsiella pneumoniae): >64 mg/L
MIC K. pneumoniae 067 (Klebsiella pneumoniae): >64 mg/L
MIC K. pneumoniae ATCC 4352 (Klebsiella pneumoniae): 0.5 mg/L (≈ 0.433 µM)

CC(C)CC(CN)C(=O)N[C@H](C(=O)N[C@@H](CN)C(=O)N[C@H]1CCNC(=O)[C@H]([C@@H](C)O)NC(=O)[C@H](CCN)NC(=O)[C@H](CCN)NC(=O)[C@H](CC(C)C)NC(=O)[C@@H](Cc2ccc(-c3ccccc3)cc2)NC(=O)[C@H](CCN)NC1=O)C(C)O (single isomer, unassigned; isomer 1) [Example 15, 2-aminomethyl-4-mehtly pentanoyl polymyxin L-Thr-L-Dap-polymyxin [D-(4-phenyl Phe)]-6]heptapeptide. Isomer 1]
MIC E. coli 058 (Escherichia coli): 32 mg/L (≈ 27.8 µM)
MIC E. coli 059 (Escherichia coli): 16 mg/L (≈ 13.9 µM)
MIC E. coli 060 (Escherichia coli): 32 mg/L (≈ 27.8 µM)
MIC E. coli 061 (Escherichia coli): 64 mg/L (≈ 55.5 µM)
MIC E. coli ATCC 25922 (Escherichia coli): 1 mg/L (≈ 0.868 µM)
MIC A. baumanii 053 (Acinetobacter baumannii): >64 mg/L
MIC A. baumanii 056 (Acinetobacter baumannii): >64 mg/L
MIC A. baumanii ATCC BAA-747 (Acinetobacter baumannii): 8 mg/L (≈ 6.94 µM)
MIC P. aeruginosa 068 (Pseudomonas aeruginosa): 16 mg/L (≈ 13.9 µM)
MIC P. aeruginosa 070 (Pseudomonas aeruginosa): 32 mg/L (≈ 27.8 µM)
MIC P. aeruginosa ATCC 27853 (Pseudomonas aeruginosa): 1 mg/L (≈ 0.868 µM)
MIC K. pneumoniae 062 (Klebsiella pneumoniae): >64 mg/L
MIC K. pneumoniae 063 (Klebsiella pneumoniae): >64 mg/L
MIC K. pneumoniae 064 (Klebsiella pneumoniae): >64 mg/L
MIC K. pneumoniae 065 (Klebsiella pneumoniae): 64 mg/L (≈ 55.5 µM)
MIC K. pneumoniae 066 (Klebsiella pneumoniae): 64 mg/L (≈ 55.5 µM)
MIC K. pneumoniae 067 (Klebsiella pneumoniae): >64 mg/L
MIC K. pneumoniae ATCC 4352 (Klebsiella pneumoniae): 0.5 mg/L (≈ 0.434 µM)
